Square brackets hold non-standard residues; d marks the D form. Ends that are not written are not given here. Peptide text beside a SMILES is read from it.
Experiments:
Salmonella = format: cell-based, S. typhimurium; details: pH 7.2
Procedure: (§1) The experiments described above characterizing the activity of granulysin peptides G1-G18 relied on counting bacterial colonies on plates. This assay is quite labor intensive and would not allow evaluation of many different compounds on a number of different microbes. Therefore, we optimized an assay in which the entire procedure could be completed in a single microtiter well. Briefly, peptides are diluted in 10 mM phosphate buffer, pH 7.2 supplemented with 0.03% LB (J. Sambrook, D. W. Russell, Molecular Cloning: A Laboratory Manual (Cold Spring Harbor Laboratory Press, New York, ed. 3, 2001) pg. A2.2, Retrieved from http://openwetware.org/wiki/LB) and 25 μl is added to microtiter wells. Bacteria (25 μl) are added (˜5×10^6 colony forming units/ml) in the same buffer. After a 3-hour incubation at 37° C., 150 μl of LB is added and the plates are incubated overnight. The OD at 600 nm is read on an ELISA plate reader. The minimum inhibitory concentration (MIC) is the lowest concentration allowing no bacterial growth. The IC50 is the concentration of peptide that results in 50% growth compared to the medium.
(§2) We now describe additional peptides and their activity. The peptides have been designed, synthesized, and have been tested for lysis of E. coli and S. typhimurium (gram negative bacteria), B. cereus (gram positive bacterium). Results are shown in Table 2 along with the amino acid sequence of the peptide. Changes from the naturally occurring sequence are underlined. In general, the desired result is lysis of bacteria at low concentration (<1 μM).
(§3) In Table 2, Columns 2-7 are the MIC and IC50 (concentration required for 50% inhibition of growth) for each organism (E. coli, Salmonella, and B. cereus). The MIC (minimum inhibitory concentration) was determined as described above, in a multiwell plate assay. […] L-isomer amino acids are designated by capital letters while D-isomer amino acids are designated by lower case letters.

B. cereus = format: cell-based; details: pH 7.2
Procedure: as §1, §2, §3

E. coli DH5a = format: cell-based; details: DH5a, pH 7.2
Procedure: as §1, §2, §3

Compound	IC50 (Salmonella)	Salmonella MIC (Salmonella)	B. cereus MIC (B. cereus)	IC50 (B. cereus)	E. coli DH5a MIC (E. coli DH5a)	IC50 (E. coli DH5a)
CC(C)[C@H](NC(=O)[C@H](CO)NC(=O)[C@H](CCCNC(=N)N)NC(=O)[C@@H](N)CCC(N)=O)C(=O)N[C@@H](CO)C(=O)N[C@@H](CCCNC(=N)N)C(=O)N[C@H](C)C(=O)N[C@H](C)C(=O)N[C@H](C(=O)N[C@@H](CCCNC(=N)N)C(=O)N[C@H](C(=O)N[C@@H](CO)C(=O)N[C@@H](CCCNC(=N)N)C(=O)N[C@H](C(=O)NCC(=O)N[C@@H](CCCNC(=N)N)C(=O)N[C@@H](CO)C(=O)N[C@@H](CCCNC(=N)N)C(=O)N[C@@H](Cc1c[nH]c2ccccc12)C(=O)O)[C@@H](C)O)C(C)C)[C@@H](C)O [Peptide G13.7, QRSVSRaaTRVSRTGRSRW] (H-QRSVSR[dA][dA]TRVSRTGRSRW-OH; N-terminus and C-terminus assumed)	> 10000 nM	>10 µM	>10 µM	7700 nM	5.7 µM	2850 nM
RDVCRNFMRR [Peptide G11, RDVCRNFMRR, reference compound]	> 10000 nM	>10 µM	>10 µM	> 10000 nM	>10 µM	> 10000 nM
RDVSRRFMRRRDVSRRFMRR [Peptide G11.39]	1700 nM	2.75 µM	0.7 µM	450 nM	0.7 µM	220 nM
GRSRWRDVSRRFMRR [Peptide G14.2, GRSRWRDVSRRFMRR]	860 nM	1.4 µM	2.8 µM	1750 nM	1.45 µM	850 nM
CSCC[C@H](NC(=O)[C@H](Cc1ccccc1)NC(=O)[C@H](CCCNC(=N)N)NC(=O)[C@H](CCCNC(=N)N)NC(=O)[C@H](CO)NC(=O)[C@@H](NC(=O)[C@@H](CC(=O)O)NC(=O)[C@@H](CCCNC(=N)N)NC(=O)[C@H](Cc1c[nH]c2ccccc12)NC(=O)[C@H](CCCNC(=N)N)NC(=O)[C@H](CO)NC(=O)[C@H](CCCNC(=N)N)NC(=O)CN)C(C)C)C(=O)N[C@@H](CCCNC(=N)N)C(=O)N[C@@H](CCCNC(=N)N)C(=O)O [Peptide G14.10, GRSRWrdVSRRFMRR] (H-GRSRW[dR][dD]VSRRFMRR-OH; N-terminus and C-terminus assumed)	890 nM	1.4 µM	2.8 µM	1750 nM	1.25 µM	450 nM
CC[C@@H](C)[C@@H](NC(=O)[C@@H](NC(=O)[C@H](CCCNC(=N)N)NC(=O)[C@@H](CO)NC(=O)[C@H](CCC(N)=O)NC(=O)[C@@H](CCCNC(=N)N)NC(=O)[C@@H](CCCNC(=N)N)NC(=O)[C@H](CCSC)NC(=O)[C@H](Cc1ccccc1)NC(=O)[C@H](CCCNC(=N)N)NC(=O)[C@H](CCCNC(=N)N)NC(=O)[C@@H](C)NC(=O)[C@@H](NC(=O)[C@H](CC(=O)O)NC(=O)[C@@H](N)CCCNC(=N)N)C(C)C)C(C)C)C(=O)N[C@@H](CO)C(=O)N[C@@H](CCCNC(=N)N)C(=O)N[C@@H](CC(C)C)C(=O)N[C@H](C(=O)O)C(C)C [Peptide G12.18, RDVaRRFMrrQsRViSRLV] (H-RDV[dA]RRFM[dR][dR]Q[dS]RV[dI]SRLV-OH; N-terminus and C-terminus assumed)	1610 nM	2.8 µM	5.6 µM	3510 nM	2.9 µM	1000 nM
QRAVARAATRVARTGRARW [Peptide G13.6, QRAVARAATRVARTGRARW]	7480 nM	>10 µM	>10 µM	7700 nM	2.8 µM	1650 nM
RRVSRRFMRRGSRRVSRRFMRR [Peptide G11.7]	210 nM	0.35 µM	0.35 µM	210 nM	0.35 µM	210 nM
CSCC[C@@H](NC(=O)[C@@H](Cc1ccccc1)NC(=O)[C@@H](CCCCN)NC(=O)[C@@H](CCCCN)NC(=O)[C@@H](CO)NC(=O)[C@H](NC(=O)[C@@H](CCCCN)NC(=O)[C@@H](CCCCN)NC(=O)[C@@H](CO)NC(=O)CNC(=O)[C@@H](CCCCN)NC(=O)[C@@H](CCCCN)NC(=O)[C@@H](CCSC)NC(=O)[C@@H](Cc1ccccc1)NC(=O)[C@@H](CCCCN)NC(=O)[C@@H](CCCCN)NC(=O)[C@@H](CO)NC(=O)[C@H](NC(=O)[C@@H](CCCCN)NC(=O)[C@H](N)CCCCN)C(C)C)C(C)C)C(=O)N[C@H](CCCCN)C(=O)N[C@H](CCCCN)C(=O)O [Peptide G11.54, kkvskkfmkkgskkvskkfmkk]	> 10000 nM	>10 µM	0.35 µM	210 nM	>10 µM	8250 nM
QRRSSRFMRRYQRVVPRGLV [Peptide G12.24]	700 nM	1.4 µM	0.8 µM	420 nM	0.8 µM	420 nM
RRVSRRFMRRSRWARKGSGQMVQQSSQQFQ [Peptide G11.41]	3250 nM	5.6 µM	1.38 µM	890 nM	3.5 µM	960 nM
RRVVRRLLRR [Peptide G11.19, RRVVRRLLRR]	7690 nM	>10 µM	6.65 µM	3410 nM	>10 µM	7450 nM
